Target: T1, TNF-α (Homo sapiens, UniProt P01375)
T1 construct: purchased R&D 210-TA-020/CF
Assay: TNF-α Induced HEK Blue Cellular Assay (secreted alkaline phosphatase expression, QUANTI-Blue)
Assay type: cell-based
Conditions: HEK Blue TNFα reporter cells; TNF-α 100 μg/ml; 24 hrs at 37° C.; inhibition of secreted alkaline phosphatase; read-out: IC50 value
Method in brief: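 Compound was serially diluted from […] to 0.5 nM final, then incubated with 10,000 HEK Blue TNFα reporter cells per well and […] TNF-α for 24 h at 37° C. SEAP output was read by QUANTI-Blue absorbance at 620 nm. Inhibition was background-corrected against DMSO controls with and without stimulation, and IC50 was fitted with a 4-parameter logistic equation.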

T1 sequence (P01375 77-233 limits assumed): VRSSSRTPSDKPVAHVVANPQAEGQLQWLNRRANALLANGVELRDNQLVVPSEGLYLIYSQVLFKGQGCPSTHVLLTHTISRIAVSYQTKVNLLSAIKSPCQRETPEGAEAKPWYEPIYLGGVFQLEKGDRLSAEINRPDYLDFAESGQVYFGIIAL

SMILES | IC50 [nM]
[2H]C([2H])([2H])N1C(=O)c2cccc(OC(F)F)c2[C@H]2C[C@@H]1c1nc3ccc(C#CC4CCN(C(=O)C(C)(C)O)C4)cc3n12 (stereo partly drawn) [Example 202, (7R,14R)-1-(difluoromethoxy)-11-((1-(2-hydroxy-2-methylpropanoyl)pyrrolidin-3-yl)ethynyl)-6-(methyl-d3)-6,7-dihydro-7,14-methanobenzo[f]benzo[4,5]imidazo[1,2-a][1,4]diazocin-5(14H)-one] | 100 to 1000
[2H]C([2H])([2H])N1C(=O)c2cccc(OC(F)F)c2[C@H]2C[C@@H]1c1nc3ccc(C#CC4CCN(C(=O)C5(O)CC5)C4)cc3n12 (stereo partly drawn) [Example 203, (7R,14R)-1-(difluoromethoxy)-11-((1-(1-hydroxycyclopropane-1-carbonyl)pyrrolidin-3-yl)ethynyl)-6-(methyl-d3)-6,7-dihydro-7,14-methanobenzo[f]benzo[4,5]imidazo[1,2-a][1,4]diazocin-5(14H)-one] | < 100
[2H]C([2H])([2H])N1C(=O)c2cccc(OC(F)F)c2[C@H]2C[C@@H]1c1nc3ccc(C#CC4CCN(C(=O)C(C)(C)C)C4)cc3n12 (stereo partly drawn) [Example 204, (7R,14R)-1-(difluoromethoxy)-6-(methyl-d3)-11-((1-pivaloylpyrrolidin-3-yl)ethynyl)-6,7-dihydro-7,14-methanobenzo[f]benzo[4,5]imidazo[1,2-a][1,4]diazocin-5(14H)-one] | < 100
[2H]C([2H])([2H])N1C(=O)c2cccc(OC(F)F)c2[C@H]2C[C@@H]1c1nc3ccc(C#CC4(C)CN(C(=O)C5(O)CC5)C4)cc3n12 [Example 205, (7R,14R)-1-(difluoromethoxy)-11-((1-(1-hydroxycyclopropane-1-carbonyl)-3-methylazetidin-3-yl)ethynyl)-6-(methyl-d3)-6,7-dihydro-7,14-methanobenzo[f]benzo[4,5]imidazo[1,2-a][1,4]diazocin-5(14H)-one] | < 100
[2H]C([2H])([2H])N1C(=O)c2cccc(OC(F)F)c2[C@H]2C[C@@H]1c1nc3ccc(C#CC4(C)CN(CC)C4)cc3n12 [Example 206, (7R,14R)-1-(difluoromethoxy)-11-((1-ethyl-3-methylazetidin-3-yl)ethynyl)-6-(methyl-d3)-6,7-dihydro-7,14-methanobenzo[f]benzo[4,5]imidazo[1,2-a][1,4]diazocin-5(14H)-one] | < 100
[2H]C([2H])([2H])N1C(=O)c2cccc(OC(F)F)c2[C@H]2C[C@@H]1c1nc3ccc(C#CCCC(C)O)cc3n12 (stereo partly drawn) [Example 207, (7R,14R)-1-(difluoromethoxy)-11-(5-hydroxyhex-1-yn-1-yl)-6-(methyl-d3)-6,7-dihydro-7,14-methanobenzo[f]benzo[4,5]imidazo[1,2-a][1,4]diazocin-5(14H)-one] | < 100
[2H]C([2H])([2H])N1C(=O)c2cccc(OC(F)F)c2[C@H]2C[C@@H]1c1nc3ccc(C#CC4(C)CN(C(=O)C5CC5(F)F)C4)cc3n12 (stereo partly drawn) [Example 210, (7R,14R)-11-((1-(2,2-difluorocyclopropane-1-carbonyl)-3-methylazetidin-3-yl)ethynyl)-1-(difluoromethoxy)-6-(methyl-d3)-6,7-dihydro-7,14-methanobenzo[f]benzo[4,5]imidazo[1,2-a][1,4]diazocin-5(14H)-one] | 100 to 1000
[2H]C([2H])([2H])N1C(=O)c2cccc(OC(F)F)c2[C@H]2C[C@@H]1c1nc3ccc(C#CC4(C)CN(C5CC5)C4)cc3n12 [Example 211, (7R,14R)-11-((1-cyclopropyl-3-methylazetidin-3-yl)ethynyl)-1-(difluoromethoxy)-6-(methyl-d3)-6,7-dihydro-7,14-methanobenzo[f]benzo[4,5]imidazo[1,2-a][1,4]diazocin-5(14H)-one] | < 100
[2H]C([2H])([2H])N1C(=O)c2cccc(OC(F)F)c2[C@H]2C[C@@H]1c1nc3ccc(C#CC4(C)CCOC4)cc3n12 (stereo partly drawn) [Example 212, (7R,14R)-1-(difluoromethoxy)-6-(methyl-d3)-11-((3-methyltetrahydrofuran-3-yl)ethynyl)-6,7-dihydro-7,14-methanobenzo[f]benzo[4,5]imidazo[1,2-a][1,4]diazocin-5(14H)-one] | 100 to 1000
[2H]C([2H])([2H])N1C(=O)c2cccc(OC(F)F)c2[C@H]2C[C@@H]1c1nc3ccc(C#CCCNC(=O)C(C)(C)O)cc3n12 [Example 213, N-(4-((7R,14R)-1-(difluoromethoxy)-6-(methyl-d3)-5-oxo-5,6,7,14-tetrahydro-7,14-methanobenzo[f]benzo[4,5]imidazo[1,2-a][1,4]diazocin-11-yl)but-3-yn-1-yl)-2-hydroxy-2-methylpropanamide] | 10000 to 30000
[2H]C([2H])([2H])N1C(=O)c2cccc(OC(F)F)c2[C@H]2C[C@@H]1c1nc3ccc(C#CCCNC(=O)C4CC4)cc3n12 [Example 214, N-(4-((7R,14R)-1-(difluoromethoxy)-6-(methyl-d3)-5-oxo-5,6,7,14-tetrahydro-7,14-methanobenzo[f]benzo[4,5]imidazo[1,2-a][1,4]diazocin-11-yl)but-3-yn-1-yl)cyclopropanecarboxamide] | 100 to 1000
[2H]C([2H])([2H])N1C(=O)c2cccc(OC(F)F)c2[C@H]2C[C@@H]1c1nc3ccc(C#CCCNC(=O)C(C)(C)C)cc3n12 [Example 215, N-(4-((7R,14R)-1-(difluoromethoxy)-6-(methyl-d3)-5-oxo-5,6,7,14-tetrahydro-7,14-methanobenzo[f]benzo[4,5]imidazo[1,2-a][1,4]diazocin-11-yl)but-3-yn-1-yl)pivalamide] | 10000 to 30000
[2H]C([2H])([2H])N1C(=O)c2cccc(OC(F)F)c2[C@H]2C[C@@H]1c1nc3ccc(C#CC4CCCN(C5CC5)C4)cc3n12 (stereo partly drawn) [Example 218, (7R,14R)-11-((1-cyclopropylpiperidin-3-yl)ethynyl)-1-(difluoromethoxy)-6-(methyl-d3)-6,7-dihydro-7,14-methanobenzo[f]benzo[4,5]imidazo[1,2-a][1,4]diazocin-5(14H)-one] | 10000 to 30000
[2H]C([2H])([2H])N1C(=O)c2cccc(OC(F)F)c2[C@H]2C[C@@H]1c1nc3ccc(C#CC(O)CC(F)(F)F)cc3n12 (stereo partly drawn) [Example 219, (7R,14R)-1-(difluoromethoxy)-6-(methyl-d3)-11-(5,5,5-trifluoro-3-hydroxypent-1-yn-1-yl)-6,7-dihydro-7,14-methanobenzo[f]benzo[4,5]imidazo[1,2-a][1,4]diazocin-5(14H)-one] | < 100
[2H]C([2H])([2H])N1C(=O)c2cccc(OC(F)F)c2[C@H]2C[C@@H]1c1nc3ccc(C#CCCN4CC[C@H](F)C4)cc3n12 [Example 220, (7R,14R)-1-(difluoromethoxy)-11-(4-((S)-3-fluoropyrrolidin-1-yl)but-1-yn-1-yl)-6-(methyl-d3)-6,7-dihydro-7,14-methanobenzo[f]benzo[4,5]imidazo[1,2-a][1,4]diazocin-5(14H)-one] | < 100
[2H]C([2H])([2H])N1C(=O)c2cccc(OC(F)F)c2[C@H]2C[C@@H]1c1nc3ccc(C#CC4CN(C5CC5)C4)cc3n12 [Example 223, (7R,14R)-11-((1-cyclopropylazetidin-3-yl)ethynyl)-1-(difluoromethoxy)-6-(methyl-d3)-6,7-dihydro-7,14-methanobenzo[f]benzo[4,5]imidazo[1,2-a][1,4]diazocin-5(14H)-one] | 100 to 1000
[2H]C([2H])([2H])N1C(=O)c2cccc(OC(F)F)c2[C@H]2C[C@@H]1c1nc3ccc(C#CC4CN(C5COC5)C4)cc3n12 [Example 224, (7R,14R)-1-(difluoromethoxy)-6-(methyl-d3)-11-((1-(oxetan-3-yl)azetidin-3-yl)ethynyl)-6,7-dihydro-7,14-methanobenzo[f]benzo[4,5]imidazo[1,2-a][1,4]diazocin-5(14H)-one] | < 100
[2H]C([2H])([2H])N1C(=O)c2cccc(OC(F)F)c2[C@H]2C[C@@H]1c1nc3ccc(C#CC4(C)CCCN(C(C)=O)C4)cc3n12 (stereo partly drawn) [Example 225, (7R,14R)-11-((1-acetyl-3-methylpiperidin-3-yl)ethynyl)-1-(difluoromethoxy)-6-(methyl-d3)-6,7-dihydro-7,14-methanobenzo[f]benzo[4,5]imidazo[1,2-a][1,4]diazocin-5(14H)-one] | < 100
[2H]C([2H])([2H])N1C(=O)c2cccc(OC(F)F)c2[C@H]2C[C@@H]1c1nc3ccc(C#CCCN4CCC(F)(F)C4)cc3n12 [Example 226, (7R,14R)-1-(difluoromethoxy)-11-(4-(3,3-difluoropyrrolidin-1-yl)but-1-yn-1-yl)-6-(methyl-d3)-6,7-dihydro-7,14-methanobenzo[f]benzo[4,5]imidazo[1,2-a][1,4]diazocin-5(14H)-one] | < 100
[2H]C([2H])([2H])N1C(=O)c2cccc(OC(F)F)c2[C@H]2C[C@@H]1c1nc3ccc(C#CCCN4CC[C@@H](F)C4)cc3n12 [Example 227, (7R,14R)-1-(difluoromethoxy)-11-(4-((R)-3-fluoropyrrolidin-1-yl)but-1-yn-1-yl)-6-(methyl-d3)-6,7-dihydro-7,14-methanobenzo[f]benzo[4,5]imidazo[1,2-a][1,4]diazocin-5(14H)-one] | < 100
[2H]C([2H])([2H])N1C(=O)c2cccc(OC(F)F)c2[C@H]2C[C@@H]1c1nc3ccc(C#CCCN4CC(F)C4)cc3n12 [Example 228, (7R,14R)-1-(difluoromethoxy)-11-(4-(3-fluoroazetidin-1-yl)but-1-yn-1-yl)-6-(methyl-d3)-6,7-dihydro-7,14-methanobenzo[f]benzo[4,5]imidazo[1,2-a][1,4]diazocin-5(14H)-one] | < 100
[2H]C([2H])([2H])N1C(=O)c2cccc(OC(F)F)c2[C@H]2C[C@@H]1c1nc3ccc(C#CCN4CCOCC4)cc3n12 [Example 229, (7R,14R)-1-(difluoromethoxy)-6-(methyl-d3)-11-(3-morpholinoprop-1-yn-1-yl)-6,7-dihydro-7,14-methanobenzo[f]benzo[4,5]imidazo[1,2-a][1,4]diazocin-5(14H)-one] | 100 to 1000
